Experimental data taken from patent US20240246042A1, “METHOD FOR EMULSIFICATION USING IONIC FLUX” (Purdue Research Foundation, priority 2023, published 2024).
Like-named read-outs stand apart in the source and are kept apart here.

Experiments:
[1] = transfer from water to DCE; cited from earlier work
[2] = Gibbs free energy of ion transfer and ion transfer potentials across the water and DCE phase; format: physicochemical
Text: The Gibbs free energy of ion transfer and the ion transfer potentials for relevant ions across the water and DCE phase were studied.

[3] = format: physicochemical; settings: aqueous phase None; cathode in aqueous, anode in DCE (per FIG. 23C, 24D-F); 5 mA, 5 min
Experimental: E) The cathode was placed in an aqueous phase containing no phase-transfer agent, and the anode was placed in DCE containing 0.1 M [NBu4][Br]. F) The cathode was placed in an aqueous phase containing no phase-transfer agent, and the anode was placed in DCE containing 0.1 M [NHx][ClO4].
All experiments were performed using bi-phasic systems consisting of immiscible solutions, such as 1,2-dichloroethane and water. Before experimentation, a platinum wire (r=1 mm) was sealed within a cell while maintaining an electrical connection. […] A secondary platinum wire (r=1 mm) was then submerged into the aqueous top layer to complete the circuit and allow for current to flow. Upon submersion, a current was then applied across the system using DC power supply. Current was maintained at 5 mA for a total duration of 5 min. Solutions were allowed to rest for an additional 5 minutes before additional experimentation or measurement.
The droplet sizes were measured. In these measurements, the resulting top layer and bottom layer from the prior section were allowed to rest for 5 minutes and were then transferred to a 1 cm glass cuvette. After transfer, the cuvette was inserted into the DLS instrumentation and was allowed to perform dynamic light scatter measurements to determine the size and intensity of the droplets formed during electro-emulsification. […]

SMILES | ΔGw→DCE^0 (standard Gibbs free energy of ion transfer) [1] | Δφw→DCE^0 (standard ion transfer potential) ([2]; transfer from water to DCE) | Δφw→DCE^0 (standard ion transfer potential) [2] | Average Size (d · nm) N = 3 [3] | Zeta Potential [3]
[K+] [K^+] | 12.6 kcal/mol | −548 mV | – | – | –
[O-][Cl+3]([O-])([O-])O [ClO4^−] | 4.11 kcal/mol | −178 mV | – | – | –
[H+] [H^+] | 14.5 kcal/mol | −627 mV | – | – | –
CC[N+](CC)(CC)CC [NEt4^+, tetraethylammonium] | – | – | −44 mV | – | –
F[P-](F)(F)(F)(F)F [PF6^−] | 2.08 kcal/mol | −90 mV | – | – | –
[Na+] [Na^+] | 14.1 kcal/mol | −610 mV | – | – | –
Cl [Cl^−] | 11.1 kcal/mol | −481 mV | – | – | –
CCCCCC[N+](CCCCCC)(CCCCCC)CCCCCC.[O-][Cl+3]([O-])([O-])[O-] [[NHx4][ClO4], tetrahexylammonium perchlorate] | – | – | – | 3477 nm | −6.031 mV
Br [Br^−] | 9.2 kcal/mol | −399 mV | – | – | –
CCCC[N+](CCCC)(CCCC)CCCC [NBu4^+, tetrabutylammonium] | – | 226 mV | – | – | –
